# Where no end group is shown, it is not given here. [ ]: non-standard residue; d: D form. Nva = CCC[C@H](N)C(=O)O
# Key:
# Type in all cases: in vivo, mouse
# D2.mdx mice [1] = assay: Western blotting of electron transport chain complex subunits in muscle
# Method: D2.mdx mice were treated with ALY688 at two different dosages; high dose (HD; 15 mg/kg body weight/day) or low dose (LD; 3 mg/kg body weight/day) dissolved in saline. A separate group of mice were treated with saline alone (VEH, vehicle). Treatment was provided via subscapular subcutaneous injections from 7 days of age to 28-30 days. […] At 28-30 days of age, mice were anaesthetized with isoflurane vaporized in medical air (21% oxygen) at a 2 L/min flow rate. Due to tissue limitations in limb muscle, certain measures were performed separately in tibialis anterior and quadriceps across several phases of breeding. Following the treatment protocol, in situ quadriceps force assessments were then performed in one limb followed by removal of the quadriceps from the other limb for mitochondrial assessments, diaphragm for in vitro force assessments and finally other tissues for further processing as described below. Muscle and visceral organs weights were normalized to tibia length. Tissue collected from the first phase were utilized in force, histological, mitochondrial measures (respiration, mH2O2 and calcium retention capacity) and western analyses (diaphragm and quadriceps only). A second phase was then collected and utilized for cytokine profiling, qPCR analyses and additional westerns (TA only). Serum was collected from both phase 1 and 2 and utilized for serum CK analysis. All animals were utilized in in vivo functional assays (grip strength, cage hang time and voluntary wheel running).
# Frozen sections of quadriceps and diaphragm from each muscle (approximately 10-30 mg in size) were homogenized using a plastic microcentrifuge tube with tapered Teflon pestle in ice-cold lysis buffer containing (in mM) (20 Tris/HCl, 150 NaCl, 1 EDTA, 1 EGTA, 1% Triton X-100, 2.5 Na4O7P2, 1 Na3VO4, pH 7.0) supplemented with protease (Sigma) and phosphatase inhibitors (Roche). A 12% gel was used to separate electron transport chain proteins and all other proteins were separated on a 10% gel. Following, all gels were transferred onto 0.2μm low fluorescence PVDF membrane (Bio-Rad, Mississauga, Canada) and blocked with Li-COR Intercept Blocking Buffer (LI-COR, Lincoln NE, USA) for 1 hour. Membranes were then incubated with specific primary antibodies (listed below) overnight at 4° C. A commercially available monoclonal rodent OXPHOS Cocktail (ab110413; Abcam, Cambridge, UK, 1:250 dilution) including V-ATP5A (55 kDa), III-UQCRC2 (48 kDa), IV-MTCO1 (40 kDa), II-SDHB (30 kDa), and I-NDUFB8 (20 kDa) were used to detect electron transport chain proteins. […] Prior to detection, membranes were washed in TBS-T three times for 5 minutes and then imaged using infrared imaging (LI-COR CLx; LI-COR, Lincoln, NE, USA) and quantified by densitometry (ImageJ, http://imagej.nih.gov/ij/). […]
# D2.mdx mice [2] = assay: In-situ quadriceps force
# Method: D2.mdx mice were treated with ALY688 at two different dosages; high dose (HD; 15 mg/kg body weight/day) or low dose (LD; 3 mg/kg body weight/day) dissolved in saline. A separate group of mice were treated with saline alone (VEH, vehicle). Treatment was provided via subscapular subcutaneous injections from 7 days of age to 28-30 days. […] At 28-30 days of age, mice were anaesthetized with isoflurane vaporized in medical air (21% oxygen) at a 2 L/min flow rate. Due to tissue limitations in limb muscle, certain measures were performed separately in tibialis anterior and quadriceps across several phases of breeding. […]
# Body temperature was maintained using an overhead heat lamp. […] Optimal resting length (L0) was determined using single twitches (pulse width=0.2 ms) at varying muscle lengths at the maximal stimulation current. Force was assessed across increasing frequencies (1, 40, 60, 80, 100, 120 Hz) using a biphasic stimulator (Model 710B, Aurora Scientific, Inc., ON, Canada), with one minute rest between each frequency. […] Recovery from fatigue was assessed 5, 10 and 15 minutes after the last contraction of the fatigue protocol at the frequency that elicited max force. Data were analyzed using Dynamic Muscle Control Data Acquisition software (Aurora Scientific, Inc) and normalized to quadriceps weight in mg.
# D2.mdx mice [3] = assay: Serum cytokine profiling (LEGENDplex)
# Method: Male D2.mdx mice originated from a colony maintained at York University (Toronto, Canada) and sourced from Jackson Laboratories (Stock Number 013141, Bar Harbor, United States). Mice were treated daily from days 7 to 28 of age with ALY688 at 15 mg/kg b.w. (D2.mdx-ALY688) or saline control (D2.mdx-VEH). This age was chosen given it captures an early stage of disease progression in cardiac and skeletal muscle. Mice were sacrificed 20-24 hr after the last dose. Breeding of wildtype mice was unsuccessful. Instead, three-week-old wildtype DBA/2J WT mice (D2A) were obtained from Jackson Laboratories (Stock number 000671, Bar Harbor, United States) and allowed to acclimatize for one week before sacrifice. Mice were housed in standard 12:12-hr light:dark cycles and were allowed access to standard rodent chow and water ad libitum. 4 days prior to sacrifice, all groups underwent novel object recognition acclimatization and testing as described below. Mice were anesthetized under 5% isoflurane vaporized in medical air (21% oxygen) at a flow rate of 2 L/min and then maintained at 2-3% prior to euthanasia by exsanguination. Muscles were removed and used for another investigation (under review at the time of this submission). The right and left hippocampus were then quickly dissected from the brain with a portion placed immediately into ice-cold BIOPS, containing (in mM): 50 MES Hydrate, 7.23 K2EGTA, 2.77 CaK2EGTA, 20 imidazole, 0.5 dithiothreitol, 20 taurine, 5.77 ATP, 15 PCr, and 6.56 MgCl2·6H2O (pH 7.1) or flash-frozen in liquid nitrogen and stored at −80° C. for RNA isolation and western blotting. All experiments and procedures were approved by the Animal Care Committee at York University (AUP Approval Number 2016-18) in accordance with the Canadian Council on Animal Care.
# Protein contents of TGF-β, TNF-α, IL-1β, IL-6 and IL-10 in serum were measured by flow cytometry using LEGENDplex™ Mouse Custom Panel (BioLegend; San Diego, CA, USA). […] The FCS files generated on the flow cytometer were analyzed using the LEGENDplex™ cloud-based analysis software.
substance,measurement,setting,value
[dN]IP[Nva]LY[dS]FA[dS]-NH2 [ALY688],complex IV content,"D2.mdx mice [1]; diaphragm, LD",−27.0 % vs WT
same,total sum of electron transport chain complexes,"D2.mdx mice [1]; diaphragm, disease state groups",−13.8 to −19.3 % vs WT
same,specific subunits of complex III and V,"D2.mdx mice [1]; quadriceps and diaphragm, disease state groups (VEH, LD, HD)",−14.7 to −31.5 % vs WT
same,total sum of electron transport chain complexes,"D2.mdx mice [1]; quadriceps, HD",−29.1 % vs WT
same,muscle force production,D2.mdx mice [2]; both doses,no effect
same,"recovery from fatigue, change","D2.mdx mice [2]; low dose, printed range also covers diaphragm high dose",−5.3% to −50.9
same,serum IL-1β,D2.mdx mice [3]; relative to D2.mdx-VEH,increased
same,serum IL-6,D2.mdx mice [3]; vs D2.mdx-VEH,attenuated
same,serum IL-10,D2.mdx mice [3]; vs wildtype,increasing

# From patent US20240382564A1, “Methods and Compositions for Treating Muscular Dystrophy and Memory Impairment” (Allysta Pharmaceuticals, Inc., priority 2023, published 2024)
